From patent US20030044776A1, “COMPOSITIONS AND METHODS FOR IDENTIFYING AGENTS THAT ALTER MITOCHONDRIAL PERMEABILITY TRANSITION PORES” (priority 1998, published 2003)

Key:
Type in all cases: cell-based, human
[1] = tested on: SH-SY5Y neuroblastoma cells; test: Apoptosis morphology (membrane blebbing) by light microscopy after ionomycin induced MPT; conditions: four hours
Protocol: Control SH-SY5Y cells, and control (normal) and AD cybrids produced from SH-SY5Y cells were as described above, and were induced to undergo MPT as described in Example 1. Some cultured cells were pretreated with 1-phenylbiguanide (I) as described in Example 8. Briefly, SH-SY5Y neuroblastoma cells (1×10^5 cells) were rinsed with one volume 1×PBS, and then treated with 10 μM ionomycin (Calbiochem, San Diego, Calif.) in DMEM supplemented with 10% fetal calf serum (FCS) (Gibco, Life Technologies, Grand Island, N.Y.) for 10 minutes, followed by two washes with DMEM (10% FCS). […]
The results using parental SH-SY5Y cells are illustrated in FIG. 10.

[2] = tested on: caspase-3 activity in AD cybrids or MixCon cybrids; test: Caspase-3 activation (DEVD-AMC cleavage) following ionomycin induced MPT; conditions: FIG. 11
Protocol: In 96-well microculture plates, cultured human cybrid neuroblastoma SH-SY5Y cells constructed using mitochondria from an individual known to have AD, or from a normal control subject, were cultured in HBSS followed by the addition of atractyloside (as described in Example 5) or ionomycin (as described in Example 1). Control cultures, to which neither atractyloside nor ionomycin were added, were prepared in parallel. Membrane potential was monitored from about 15 minutes (which was, in most cases, sufficient for purposes of the assay) to about 45 to 60 minutes, wherein “about” indicates ±10%.
Caspase-3 activity was assessed by diluting the fluorogenic peptide substrate acetyl-Asp-Glu-Val-Asp (SEQ ID NO:2) conjugated to AMC (7-amino-4-methylcoumarin; the synthetic peptide is referred to as DEVD-AMC; CalBiochem-Novabiochem Corp., San Diego, Calif.; see Walker et al., 1994 Cell 78:343, and Thornberry et al., 1992 Nature 356:768) from a DMSO stock solution into culture media to a final concentration of 20 μM for uptake by cells. Substrate cleavage liberating the AMC fluorophore was measured continuously using a Cytofluor fluorimetric plate reader (model #2350, Millipore Corp., Bedford, Mass.; excitation wavelength=435 nm; emission wavelength=460 nm). Data are presented as ΔRFU (relative fluorescence units). […]

[3] = tested on: SH-SY5Y cybrid cells (control and AD); test: Mitochondrial permeability transition (MPT) assay using DASPMI fluorescence loss rate after ionomycin induction
Protocol: The fluorescent mitochondria-selective dye 2-,4-dimethylaminostyryl-N-methylpyridinium (DASPMI, Molecular Probes, Inc., Eugene, Oreg.) is dissolved in Hank's balanced salt solution (HBSS; Life Technologies, Rockville, Md.) at 1 mM and diluted to 25 μM in warm HBSS. […]
Fluorescence of each microculture in the 96-well plate is quantified immediately using a Molecular Devices fmax fluorimetric plate reader (Molecular Devices Corp., Sunnyvale, Calif.; excitation wavelength=485 nm; emission wavelength=590 nm) and zero-time (t0) fluorescence is recorded. […] Fluorescence decay of DASPMI-loaded, ionomycin induced cells is monitored as a function of time from 0-500 seconds following addition of ionomycin. The maximum negative slope (V-max) is calculated from a subset of the data using analysis software provided by the fluorimetric plate reader manufacturer. In addition, the initial and final signal intensities are determined and the effects of candidate agents that may affect MPT on the rate of signal decay are quantified.
The method described in Example 1 was employed to monitor MPT induced by the calcium ionophore ionomycin and inhibition thereof by cyclosporin. […] Fluorescence detection and monitoring of fluorescence decay as a rate loss function were as described in Example 1. […]

In the case of `C[C@H](CCC(=O)O)C[C@H](C)C[C@H](C)C(=O)/C=C(\O)[C@H](C)C[C@H](C)C/C=C/[C@@H](C)[C@@H](O)[C@@H](C)[C@@H](O)C[C@@H]1CC[C@@](C)([C@H]2CC[C@@](C)([C@@H](C)O)O2)O1` [ionomycin], the “cells exhibiting membrane blebbing” value ([1]; parental SH-SY5Y cells, 10 μM ionomycin, untreated cells <5%, FIG. 10B) is reported as “approximately 80%” and the “caspase-3 activity induced by MPT induction” value ([2]; 25 μM ionomycin) is reported as “induces significant caspase-3 activity”.
In the case of `N=C(N)NC(=N)Nc1ccccc1` [1-phenylbiguanide], the “rate of loss of mitochondrial membrane potential (DASPMI loss rate)” value ([3]; 2 mM 1-phenylbiguanide for 20 min prior to MPT induction with 1 μM ionomycin, two AD and one control cybrid cell lines, p<0.001, FIG. 9) is reported as “decreased the rate of loss of mitochondrial membrane potential”, the “apoptosis morphology, % of cells” value ([1]; parental SH-SY5Y cells pretreated with (I), then 10 μM ionomycin, FIG. 10C) is reported as 10-15% and the “induction of caspase-3 activity after ionomycin induced MPT” value ([2]; pretreated with (I) as in Example 8 (2 mM, 20 min), MPT induced by 25 μM ionomycin) is reported as “inhibited”.
With `N.N.N.N.N.N.N.N.N.N.N.N.N.N.[Cl-].[Cl-].[Cl-].[Cl-].[Cl-].[Cl-].[O-2].[O-2].[Ru+3].[Ru+3].[Ru+4]` [ruthenium red] the “DASPMI fluorescence loss rate” value ([3]; 10 nM ruthenium red for 10 minutes prior to MPT induction with ionomycin (5 μM), control and AD cybrid cell lines, FIG. 3) was “significantly greater in cybrid cells that have not been treated with ruthenium red”.
